Measured values from article PMC11971462, “Generation and validation of a novel multitarget small molecule in glioblastoma” (Cell Death & Disease, 2025).

Test system: GNS166 cells
Assay: Label-free proteomics differential expression
Assay type: cell-based, human
Protocol: Proteomic studies were performed by the Proteomics Facility of the CIC bioGUNE by label-free relative quantification on nLC MS/MS. […] In both approaches, the top 20 enriched terms were plotted and the pathways were clustered using divisive hierarchical clustering based on pairwise Jaccard distances.

Compound: C#CCN(Cc1cc2cc(OCCCN3CCCCC3)ccc2n1S(=O)(=O)c1ccccc1)C(=O)CCCCCCC(=O)NO [DDI]
- LogFC THG1_HUMAN (protein Q9NWX6): -0.1726
- Direction F120C_HUMAN (protein Q9NX05): Down
- LogFC F120C_HUMAN (protein Q9NX05): -0.4931
- Direction IMPA3_HUMAN (protein Q9NX62): Down
- LogFC IMPA3_HUMAN (protein Q9NX62): -2.939
- Direction NSMA3_HUMAN (protein Q9NXE4): Down
- LogFC NSMA3_HUMAN (protein Q9NXE4): -1.089
- Direction TRM1_HUMAN (protein Q9NXH9): Down
- LogFC TRM1_HUMAN (protein Q9NXH9): -1.158
- Direction GTSE1_HUMAN (protein Q9NYZ3): Down
- LogFC GTSE1_HUMAN (protein Q9NYZ3): -2.523
- Direction F120A_HUMAN (protein Q9NZB2): Down
- LogFC F120A_HUMAN (protein Q9NZB2): -0.8566
- Direction MYOF_HUMAN (protein Q9NZM1): Down
- LogFC MYOF_HUMAN (protein Q9NZM1): -1.514
- LogFC SPN90_HUMAN (protein Q9NZQ3 GN=NCKIPSD): 0.408
- LogFC H2AW_HUMAN (protein Q9P0M6 GN=MACROH2A2): -2.056
- Direction RCC2_HUMAN (protein Q9P258): Down
- LogFC RCC2_HUMAN (protein Q9P258): -0.788
- Direction MO4L1_HUMAN (protein Q9UBU8): Down
- LogFC MO4L1_HUMAN (protein Q9UBU8): -1.829
- LogFC SE1L1_HUMAN (protein Q9UBV2 GN=SEL1L): 1.64
- Direction CSN7A_HUMAN (protein Q9UBW8): Down
- LogFC CSN7A_HUMAN (protein Q9UBW8): -0.366
- Direction QCR9_HUMAN (protein Q9UDW1): Down
- LogFC QCR9_HUMAN (protein Q9UDW1): -1.3801
- Direction ABCF2_HUMAN (protein Q9UG63): Down
- LogFC ABCF2_HUMAN (protein Q9UG63): -0.9684
- LogFC SEC63_HUMAN (protein Q9UGP8 GN=SEC63): -0.6574
- Direction Z3H7B_HUMAN (protein Q9UGR2): Down
- LogFC Z3H7B_HUMAN (protein Q9UGR2): -0.582
- Direction ABC3B_HUMAN (protein Q9UH17): Down
- LogFC ABC3B_HUMAN (protein Q9UH17): -2.711
- LogFC PCYOX_HUMAN (protein Q9UHG3 GN=PCYOX1): 1.78
- Direction DDX20_HUMAN (protein Q9UHI6): Down
- LogFC DDX20_HUMAN (protein Q9UHI6): -1.492
- LogFC NB5R1_HUMAN (protein Q9UHQ9 GN=CYB5R1): 0.825
- LogFC VATH_HUMAN (protein Q9UI12 GN=ATP6V1H): 0.8971
- LogFC PRAF1_HUMAN (protein Q9UI14 GN=RABAC1): -1.449
- LogFC DDX41_HUMAN (protein Q9UJV9 GN=DDX41): -0.9972
- LogFC CDC23_HUMAN (protein Q9UJX2 GN=CDC23): -0.6966
- Direction APC7_HUMAN (protein Q9UJX3): Down
- LogFC APC7_HUMAN (protein Q9UJX3): -0.9681
- LogFC NOCT_HUMAN (protein Q9UK39 GN=NOCT): 0.6965
- LogFC CCNL1_HUMAN (protein Q9UK58 GN=CCNL1): -1.514
- LogFC BORG2_HUMAN (protein Q9UKI2 GN=CDC42EP3): 1.338
- LogFC DEN2A_HUMAN (protein Q9ULE3 GN=DENND2A): -2.086
- Direction HEG1_HUMAN (protein Q9ULI3): Down
- LogFC HEG1_HUMAN (protein Q9ULI3): -2.228
- Direction PKHG1_HUMAN (protein Q9ULL1): Down
- LogFC PKHG1_HUMAN (protein Q9ULL1): -2.254
- Direction HECD1_HUMAN (protein Q9ULT8): Down
- LogFC HECD1_HUMAN (protein Q9ULT8): -1.1597
- Direction TPX2_HUMAN (protein Q9ULW0): Down
- LogFC TPX2_HUMAN (protein Q9ULW0): -2.6733
- LogFC SYNRG_HUMAN (protein Q9UMZ2 GN=SYNRG): 0.8469
- Direction MAGD2_HUMAN (protein Q9UNF1): Down
- LogFC MAGD2_HUMAN (protein Q9UNF1): -1.225
- Direction DIM1_HUMAN (protein Q9UNQ2): Down
- LogFC DIM1_HUMAN (protein Q9UNQ2): -1.324
- Direction CP131_HUMAN (protein Q9UPN4): Down
- LogFC CP131_HUMAN (protein Q9UPN4): -0.9726
- Direction TRI33_HUMAN (protein Q9UPN9): Down
- LogFC TRI33_HUMAN (protein Q9UPN9): -0.5693
- LogFC BAIP2_HUMAN (protein Q9UQB8 GN=BAIAP2): 0.1397
- LogFC AKAP2_HUMAN (protein Q9Y2D5 GN=AKAP2): 0.8401
- Direction WBP11_HUMAN (protein Q9Y2W2): Down
- LogFC WBP11_HUMAN (protein Q9Y2W2): -1.003
- LogFC RM11_HUMAN (protein Q9Y3B7 GN=MRPL11): -0.5878
- Direction UFC1_HUMAN (protein Q9Y3C8): Down
- LogFC UFC1_HUMAN (protein Q9Y3C8): -1.4452
- Direction FBX7_HUMAN (protein Q9Y3I1): Down
- LogFC FBX7_HUMAN (protein Q9Y3I1): -0.6256
- LogFC SAMH1_HUMAN (protein Q9Y3Z3 GN=SAMHD1): 0.753
- LogFC TRRAP_HUMAN (protein Q9Y4A5 GN=TRRAP): -1.346
- Direction ARIP4_HUMAN (protein Q9Y4B4): Down
- LogFC ARIP4_HUMAN (protein Q9Y4B4): -1.479
- LogFC IRS2_HUMAN (protein Q9Y4H2 GN=IRS2): 2.2713
- Direction TBL2_HUMAN (protein Q9Y4P3): Down
- LogFC TBL2_HUMAN (protein Q9Y4P3): -0.6001
- LogFC NDK7_HUMAN (protein Q9Y5B8 GN=NME7): 2.17
- Direction PCDGH_HUMAN (protein Q9Y5G0): Down
- LogFC PCDGH_HUMAN (protein Q9Y5G0): -2.292
- LogFC CD2AP_HUMAN (protein Q9Y5K6 GN=CD2AP): 0.4294
- LogFC BZW2_HUMAN (protein Q9Y6E2 GN=BZW2): 0.8735
- LogFC OAS3_HUMAN (protein Q9Y6K5 GN=OAS3): -0.7466
- Direction WASF2_HUMAN (protein Q9Y6W5): Down
- LogFC WASF2_HUMAN (protein Q9Y6W5): -1.033
- Direction NS1BP_HUMAN (protein Q9Y6Y0): Down
- LogFC NS1BP_HUMAN (protein Q9Y6Y0): -2.1021
- LogFC S23IP_HUMAN (protein Q9Y6Y8 GN=SEC23IP): 0.5141
- Direction GLCNE_HUMAN (protein Q9Y223): Down
- LogFC GLCNE_HUMAN (protein Q9Y223): -0.915
- LogFC HPSE_HUMAN (protein Q9Y251 GN=HPSE): 0.7253
- Direction EIF3L_HUMAN (protein Q9Y262): Down
- LogFC EIF3L_HUMAN (protein Q9Y262): -0.4083
- Direction AAR2_HUMAN (protein Q9Y312): Down
- LogFC AAR2_HUMAN (protein Q9Y312): -1.2504
- LogFC SKAP_HUMAN (protein Q9Y448 GN=KNSTRN): -1.456
- Direction TLN1_HUMAN (protein Q9Y490): Down
- LogFC TLN1_HUMAN (protein Q9Y490): -0.5101
- LogFC PPME1_HUMAN (protein Q9Y570 GN=PPME1): 1.066
- LogFC FHOD1_HUMAN (protein Q9Y613 GN=FHOD1): 1.204
- LogFC JAM1_HUMAN (protein Q9Y624 GN=F11R): 1.904
- Direction GPC6_HUMAN (protein Q9Y625): Down
- LogFC GPC6_HUMAN (protein Q9Y625): -2.082
- Direction S12A7_HUMAN (protein Q9Y666): Down
- LogFC S12A7_HUMAN (protein Q9Y666): -2.1239
- LogFC EM55_HUMAN (protein Q00013 GN=MPP1): 0.8133
- Direction NAA25_HUMAN (protein Q14CX7): Down
- LogFC NAA25_HUMAN (protein Q14CX7): -1.1158
- Direction PDS5A_HUMAN (protein Q29RF7): Down
- LogFC PDS5A_HUMAN (protein Q29RF7): -1.029
- LogFC H1BP3_HUMAN (protein Q53T59 GN=HS1BP3): 2.722
- LogFC GL8D1_HUMAN (protein Q68CQ7 GN=GLT8D1): -1.2539
